Values quoted from earlier work, collected in patent US11555049B2, “Method for separation and purification of n-acetylglucosamine” (JIANGSU HARVERS BIOTECH CO., LTD., priority 2020, dated 2023).
In brackets after ≈: the same amount, converted by molar mass.

solubility in water (0° C. water): 140 g/L (≈ 633 mM) | solubility in organic solvents (organic solvents such as ethanol and propanol): insoluble
Structure (SMILES): CC(=O)N[C@H]1C(O)O[C@H](CO)[C@@H](O)[C@@H]1O (some centres unmarked) [GlcNAc, N-acetyl-glucosamine]
